This note sets out measurements from patent US8314113B2, “Substituted dihydroquinazolines II” (Aicuris GmbH & Co. KG, priority 2003, dated 2012).

Structures can show the parent of a compound that is named as a salt. Where two headings read alike, the source gives them in different places.

In data set [1] the test system is HCMV. Description: Anti-HCMV cytopathogenicity test (CPE inhibition). The data set is classed as cell-based, human cytomegalovirus. Particulars: for EC50: read-out: HCMV EC50; for SI HCMV (selectivity index = CC50 (NHDF)/EC50 (HCMV)): ratio CC50 (NHDF)/EC50 (HCMV). On the procedure: Anti-HCMV (Anti-Human Cytomegalovirus) Cytopathogenicity Tests The test compounds are employed as 50 millimolar (mM) solutions in dimethyl sulphoxide (DMSO). Ganciclovir, Foscarnet and Cidofovir are used as reference compounds. After addition of in each case 2 μl of the 50, 5, 0.5 and 0.05 mM DMSO stock solutions to 98 μl portions of cell culture medium in row […] for duplicate determinations, 1:2 dilutions are carried out with 50 μl portions of medium up to row 11 of the 96-well plate. The wells in rows 1 and 12 each contain 50 μl of medium. Then 150 μl portions of a suspension of 1×10^4 cells (human prepuce fibroblasts [NHDF]) are pipetted into each of the wells (row 1=cell control) and, in rows 2-12, a mixture of HCMV-infected and uninfected NHDF cells (M.O.I.=0.001-0.002), i.e. 1-2 infected cells-per 1000 uninfected cells. Row 12 (without substance) serves as virus control. The final test concentrations are 250-0.0005 μM. The plates are incubated at 37° C./5% CO2 for 6 days, i.e. until all the cells are infected in the virus controls (100% cytopathogenic effect [CPE]). The wells are then fixed and stained by adding a mixture of formalin and Giemsa's dye (30 minutes), washed with double-distilled water and dried in a drying cabinet at 50° C. The plates are then assessed visually using an overhead microscope (Plaque Multiplier from Technomara). The following data can be acquired from the test plates: EC50 (HCMV)=substance concentration in μM which inhibits the CPE (cytopathic effect) by 50% compared with the untreated virus control;
In general terms: Cytopathic effects are the visible damage that an infection or toxin causes in cultured cells.

The nature of data set [2]: Cytotoxicity on NHDF cells in the anti-HCMV cytopathogenicity test. It counts as cell-based. The conditions noted are these: NHDF cells (human prepuce fibroblasts), visual assessment, concentration at which no visible cytostatic effects are evident. The procedure:
Anti-HCMV (Anti-Human Cytomegalovirus) Cytopathogenicity Tests The test compounds are employed as 50 millimolar (mM) solutions in dimethyl sulphoxide (DMSO). Ganciclovir, Foscarnet and Cidofovir are used as reference compounds. After addition of in each case 2 μl of the 50, 5, 0.5 and 0.05 mM DMSO stock solutions to 98 μl portions of cell culture medium in row […] for duplicate determinations, 1:2 dilutions are carried out with 50 μl portions of medium up to row 11 of the 96-well plate. The wells in rows 1 and 12 each contain 50 μl of medium. Then 150 μl portions of a suspension of 1×10^4 cells (human prepuce fibroblasts [NHDF]) are pipetted into each of the wells (row 1=cell control) and, in rows 2-12, a mixture of HCMV-infected and uninfected NHDF cells (M.O.I.=0.001-0.002), i.e. 1-2 infected cells-per 1000 uninfected cells. Row 12 (without substance) serves as virus control. The final test concentrations are 250-0.0005 μM. The plates are incubated at 37° C./5% CO2 for 6 days, i.e. until all the cells are infected in the virus controls (100% cytopathogenic effect [CPE]). The wells are then fixed and stained by adding a mixture of formalin and Giemsa's dye (30 minutes), washed with double-distilled water and dried in a drying cabinet at 50° C. The plates are then assessed visually using an overhead microscope (Plaque Multiplier from Technomara). The following data can be acquired from the test plates: CC50 (NHDF)=substance concentration in μM at which no visible cytostatic effects on the cells are evident by comparison with the untreated cell control;

The mark [3] stands for this setting: Human betaherpesvirus 5, NHDF, 144 h.
[4] abbreviates: Human betaherpesvirus 5, 144 h, HCMV-infected NHDF cells, M.O.I. 0.001-0.002, 6 days, 50% inhibition of CPE.

In the case of `COc1ccc(C(F)(F)F)cc1N1C(C2CCN(c3ccc(F)c(C)c3)CC2)=Nc2c(F)cccc2C1CC(=O)O` (racemic) [Example 1, {8-Fluoro-2-[1-(4-fluoro-3-methylphenyl)piperidin-4-yl]-3-[2-methoxy-5-(trifluoromethyl)phenyl]-3,4-dihydroquinazolin-4-yl}acetic acid hydrochloride], the EC50 in data set [1] (setting [3]) was 0.03 µM. The “SI HCMV (selectivity index = CC50 (NHDF)/EC50 (HCMV))” value in data set [1] is given as 800. The CC50 at 6 days in data set [2] is 24 µM.
Turning to `COc1ccc(C(F)(F)F)cc1N1C(C2CCN(c3ccc(F)c(C)c3)CC2)=Nc2c(F)cccc2C1CC(=O)O` (stereo not drawn) [Example 2, {8-Fluoro-2-[1-(4-fluoro-3-methylphenyl)piperidin-4-yl]-3-[2-methoxy-5-(trifluoromethyl)phenyl]-3,4-dihydroquinazolin-4-yl}acetic acid hydrochloride], the EC50 in data set [1] (setting [3]) was determined as 0.04 µM. The “SI HCMV (selectivity index = CC50 (NHDF)/EC50 (HCMV))” value in data set [1] was determined as 775. Further, in data set [2], the CC50 at 6 days was determined as 31 µM.
For `COc1ccc(C(F)(F)F)cc1N1C(C2CCN(c3cccc(C)c3)CC2)=Nc2c(F)cccc2C1CC(=O)O` (stereo not drawn) [Example 3, {8-Fluoro-3-[2-methoxy-5-(trifluoromethyl)phenyl]-2-[1-(3-methylphenyl)piperidin-4-yl]-3,4dihydroquinazolin-4-yl}acetic acid], the EC50 in data set [1] (setting [4]) amounted to 0.1 µM. For the same compound, the “SI HCMV (selectivity index = CC50 (NHDF)/EC50 (HCMV))” value in data set [1] was 310. In data set [2], this compound yielded a 50% cytotoxic concentration (CC50) at 6 days of 31 µM.
The corresponding values for `COc1ccc(C(F)(F)F)cc1N1C(C2CCN(c3ccc(F)cc3)CC2)=Nc2c(F)cccc2C1CC(=O)O` (stereo not drawn) [Example 4, {8-Fluoro-2-[1-(4-fluorophenyl)piperidin-4-yl]-3-[2-methoxy-5-(trifluoromethyl)-phenyl]-3,4-dihydroquinazolin-4-yl}acetic acid] are 0.15 µM, 237 and 36 µM.

By EC50 is commonly meant the concentration giving half of the maximal effect. What is called CC50 is the concentration giving 50% cytotoxicity. A lower CC50 goes with greater toxicity to the cells.
